The target in one assay is human AChE (Homo sapiens, UniProt P22303). Description: Inhibition of AChE. The note with it: for inhibition at 10 µM: read-out: AChE Inhibition at 10 µM [%]. Type of assay: biochemical.
The target of the next assay is human H1R (Homo sapiens, UniProt P35367). Description: Human H1R radioligand displacement assay. Type of assay: binding. The note with it: for inhibition at 1 µM: read-out: hH1R Inhibition at 1 µM [%] (n); for inhibition at 10 µM: read-out: hH1R Inhibition at 10 µM [%] ±SD (n).
The target in a further assay is T1, human recombinant MAO-B (Homo sapiens, UniProt P27338).
T1 sequence (P27338 1-520): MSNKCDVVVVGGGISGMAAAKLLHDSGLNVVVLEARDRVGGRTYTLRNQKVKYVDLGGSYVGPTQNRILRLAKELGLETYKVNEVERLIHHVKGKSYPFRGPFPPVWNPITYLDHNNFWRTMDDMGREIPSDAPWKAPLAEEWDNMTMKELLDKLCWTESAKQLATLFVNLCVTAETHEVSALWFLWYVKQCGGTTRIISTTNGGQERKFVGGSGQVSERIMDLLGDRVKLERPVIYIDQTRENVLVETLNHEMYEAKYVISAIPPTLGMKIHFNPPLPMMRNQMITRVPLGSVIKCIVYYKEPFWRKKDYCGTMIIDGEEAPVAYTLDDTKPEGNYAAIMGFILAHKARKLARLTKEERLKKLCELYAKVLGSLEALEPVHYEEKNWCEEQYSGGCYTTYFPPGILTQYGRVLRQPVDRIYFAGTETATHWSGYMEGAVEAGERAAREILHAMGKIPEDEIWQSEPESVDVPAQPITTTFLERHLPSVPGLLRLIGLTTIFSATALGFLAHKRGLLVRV
Description: Inhibition of monoamine oxidase B. The note with it: for inhibition at 10 µM: read-out: MAO-B % Inhibition at 10 µM, 10 µM; for inhibition at 10 µM / MAO-B % Inhibition at 10 µM: mean of three experiments. It is filed as biochemical.

The target in another assay is BuChE from human serum (Homo sapiens, UniProt P06276). The assay can be described thus: Inhibition of BuChE. It is filed as biochemical. The note with it: for inhibition at 10 µM: read-out: hBuChE % Inhibition at 10 µM.
Another assay addresses T2, human recombinant MAO-A (Homo sapiens, UniProt P21397).
T2 sequence (P21397 1-527): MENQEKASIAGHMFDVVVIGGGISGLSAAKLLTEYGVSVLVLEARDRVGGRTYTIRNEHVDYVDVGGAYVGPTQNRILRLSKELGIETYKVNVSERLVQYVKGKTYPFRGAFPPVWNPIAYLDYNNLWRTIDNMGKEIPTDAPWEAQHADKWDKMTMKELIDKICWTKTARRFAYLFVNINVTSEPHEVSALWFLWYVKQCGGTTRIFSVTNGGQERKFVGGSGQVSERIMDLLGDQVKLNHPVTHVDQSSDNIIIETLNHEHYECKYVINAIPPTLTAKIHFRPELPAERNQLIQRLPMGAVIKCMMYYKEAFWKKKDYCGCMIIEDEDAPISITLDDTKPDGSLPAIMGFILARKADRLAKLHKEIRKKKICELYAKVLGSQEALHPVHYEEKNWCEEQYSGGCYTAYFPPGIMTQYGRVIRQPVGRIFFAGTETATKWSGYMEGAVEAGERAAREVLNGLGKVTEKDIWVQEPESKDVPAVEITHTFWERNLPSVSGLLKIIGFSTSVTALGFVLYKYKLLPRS
The assay can be described thus: Inhibition of monoamine oxidase A. It is filed as biochemical. The note with it: read-out: MAO-A % Inhibition at 10 µM.

A further assay addresses human H3R (Homo sapiens, UniProt Q9Y5N1). Description: Human H3R radioligand displacement assay. The note with it: for inhibition at 1 µM: read-out: hH3R Inhibition at 1 µM [%] ±SD (n). (Loss of bound radioactivity is the signal in a displacement assay; it reports binding, not function.)
The next assay addresses human H4R (Homo sapiens, UniProt Q9H3N8). The assay can be described thus: Human H4R radioligand displacement assay. The note with it: read-out: hH4R Inhibition at 10 µM [%] (n).

The term IC50 denotes the concentration that inhibits the measured activity by half. By inhibition is commonly meant how much of the control response was suppressed. One may read the Ki as a dissociation constant, usually derived from enzyme kinetics or from competition with a known ligand. Higher therefore signals a looser hold on the target.

Structures are written as SMILES.

Chain of human H4R (Q9H3N8 whole entry): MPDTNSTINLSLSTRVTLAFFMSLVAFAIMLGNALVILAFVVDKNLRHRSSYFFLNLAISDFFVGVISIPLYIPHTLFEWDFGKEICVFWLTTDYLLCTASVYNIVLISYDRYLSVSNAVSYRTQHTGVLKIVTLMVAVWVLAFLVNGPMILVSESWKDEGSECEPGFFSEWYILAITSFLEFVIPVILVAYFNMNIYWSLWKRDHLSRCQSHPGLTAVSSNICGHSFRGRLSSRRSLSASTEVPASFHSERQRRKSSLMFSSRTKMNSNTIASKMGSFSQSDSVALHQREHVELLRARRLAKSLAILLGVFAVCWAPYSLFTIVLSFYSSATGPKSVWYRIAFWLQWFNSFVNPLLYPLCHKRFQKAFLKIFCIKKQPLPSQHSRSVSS
Chain of BuChE from human serum (P06276 29-602): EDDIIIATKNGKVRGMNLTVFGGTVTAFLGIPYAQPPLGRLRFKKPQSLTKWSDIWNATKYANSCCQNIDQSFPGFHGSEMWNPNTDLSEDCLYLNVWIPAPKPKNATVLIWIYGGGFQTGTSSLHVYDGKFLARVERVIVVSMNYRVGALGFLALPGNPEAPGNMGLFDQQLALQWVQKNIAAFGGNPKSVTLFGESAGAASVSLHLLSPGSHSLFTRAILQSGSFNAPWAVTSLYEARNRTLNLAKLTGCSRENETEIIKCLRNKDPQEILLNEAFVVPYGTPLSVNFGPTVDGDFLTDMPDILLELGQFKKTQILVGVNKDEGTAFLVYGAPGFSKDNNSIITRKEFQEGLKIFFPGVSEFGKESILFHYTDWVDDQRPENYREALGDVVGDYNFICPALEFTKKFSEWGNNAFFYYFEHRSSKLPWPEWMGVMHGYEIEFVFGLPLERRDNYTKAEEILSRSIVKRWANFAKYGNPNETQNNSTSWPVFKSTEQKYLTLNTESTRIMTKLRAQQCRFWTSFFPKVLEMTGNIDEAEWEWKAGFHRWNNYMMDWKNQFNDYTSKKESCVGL
Chain of human AChE (P22303 32-614): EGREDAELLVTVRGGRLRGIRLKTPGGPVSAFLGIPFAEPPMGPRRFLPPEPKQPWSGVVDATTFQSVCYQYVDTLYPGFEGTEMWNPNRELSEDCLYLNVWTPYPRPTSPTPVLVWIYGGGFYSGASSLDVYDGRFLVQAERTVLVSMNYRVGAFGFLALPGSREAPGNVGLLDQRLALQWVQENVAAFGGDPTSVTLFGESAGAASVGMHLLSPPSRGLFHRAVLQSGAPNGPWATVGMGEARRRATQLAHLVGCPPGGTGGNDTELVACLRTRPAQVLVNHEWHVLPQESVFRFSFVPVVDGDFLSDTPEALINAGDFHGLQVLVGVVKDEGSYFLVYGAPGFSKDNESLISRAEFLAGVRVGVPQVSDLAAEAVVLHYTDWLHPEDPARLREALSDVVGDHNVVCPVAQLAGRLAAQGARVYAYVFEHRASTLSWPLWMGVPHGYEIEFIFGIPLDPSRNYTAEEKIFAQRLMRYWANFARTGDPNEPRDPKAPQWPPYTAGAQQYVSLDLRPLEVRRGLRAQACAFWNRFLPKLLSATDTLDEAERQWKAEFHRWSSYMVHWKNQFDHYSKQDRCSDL
Chain of human H1R (P35367 whole entry): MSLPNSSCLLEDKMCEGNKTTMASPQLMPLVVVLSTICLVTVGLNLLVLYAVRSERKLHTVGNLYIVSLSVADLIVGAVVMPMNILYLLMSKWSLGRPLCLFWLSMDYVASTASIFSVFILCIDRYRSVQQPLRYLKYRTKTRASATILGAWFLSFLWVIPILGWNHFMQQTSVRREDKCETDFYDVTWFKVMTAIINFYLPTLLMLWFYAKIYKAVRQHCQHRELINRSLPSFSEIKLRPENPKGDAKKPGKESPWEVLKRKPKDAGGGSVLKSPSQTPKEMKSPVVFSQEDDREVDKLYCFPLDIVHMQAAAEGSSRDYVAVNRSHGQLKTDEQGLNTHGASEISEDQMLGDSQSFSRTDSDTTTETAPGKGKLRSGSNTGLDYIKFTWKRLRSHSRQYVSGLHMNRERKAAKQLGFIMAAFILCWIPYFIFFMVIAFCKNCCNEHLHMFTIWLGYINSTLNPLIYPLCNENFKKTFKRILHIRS
Chain of human H3R (Q9Y5N1 whole entry): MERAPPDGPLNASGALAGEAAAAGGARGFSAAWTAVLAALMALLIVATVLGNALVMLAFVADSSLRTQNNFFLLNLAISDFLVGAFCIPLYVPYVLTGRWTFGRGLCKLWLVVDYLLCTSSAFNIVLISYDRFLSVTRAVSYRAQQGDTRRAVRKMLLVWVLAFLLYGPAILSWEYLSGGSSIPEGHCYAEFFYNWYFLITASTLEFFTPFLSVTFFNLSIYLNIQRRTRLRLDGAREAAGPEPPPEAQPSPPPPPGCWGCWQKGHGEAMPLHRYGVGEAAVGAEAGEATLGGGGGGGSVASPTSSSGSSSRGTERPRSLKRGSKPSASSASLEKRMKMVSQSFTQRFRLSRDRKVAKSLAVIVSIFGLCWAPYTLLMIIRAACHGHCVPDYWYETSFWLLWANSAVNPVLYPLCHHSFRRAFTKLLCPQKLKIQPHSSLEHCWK

At human AChE, `CC1CCCN(CCCOc2ccc3nc(C(=O)N4CCCC(C)C4)sc3c2)C1` (centres unmarked) [Compound 4k, (3-Methylpiperidin-1-yl)(6-(3-(3-methylpiperidin-1-yl)propoxy)benzo[d]thiazol-2-yl)methanone] came in with a half-inhibitory concentration (IC50) greater than 10 µM. Also, the inhibition at 10 µM on human AChE was found to be 34.4 ± 2.15%; at human recombinant MAO-B it was 48 ± 5%; on BuChE from human serum, 30 ± 5%; at human recombinant MAO-A it was 32 ± 2%. In addition, on human H1R, the inhibition at 1 µM amounted to 42.9 ± 28.3%. The Ki at human H3R was 0.064 µM.
In turn, `O=C(c1nc2ccc(OCCCN3CCCCCC3)cc2s1)N1CCCCCC1` [Compound 4b, Azepan-1-yl-(6-(3-(azepan-1-yl)propoxy)benzo[d]thiazol-2-yl)methanone] yielded an IC50 against human AChE of 5.91 ± 0.67 µM. Further, the inhibition at 10 µM was 62.8 ± 3.35% at human AChE, 46 ± 5% on human recombinant MAO-B, 51 ± 2% on BuChE from human serum and 29 ± 2% at human recombinant MAO-A. For the same molecule, the inhibition at 1 µM at human H1R stood at 41.9 ± 33.8%. Moreover, the Ki at human H3R is 0.012 µM.
Take `O=C(c1nc2ccc(OCCCCN3CCCCC3)cc2s1)N1CCCCC1` [Compound 3j, Piperidin-1-yl-(6-(4-(piperidin-1-yl)butoxy)benzo[d]thiazol-2-yl)methanone]: the concentration for half-maximal inhibition (IC50) amounted to 8.56 ± 2.83 µM at human AChE and 3.07 ± 0.24 µM at BuChE from human serum. For the same molecule, the inhibition at 10 µM on human AChE worked out at 54.8 ± 7.01%; on human H4R it was 53.1 ± 11.7%; on human H1R, 42.8 ± 7.7%; at human recombinant MAO-B, 48 ± 5%; on BuChE from human serum, 70 ± 2%; at human recombinant MAO-A it was 29 ± 5%. At human H3R, affinity was put at a Ki of 0.17 µM.
For `O=C(c1nc2ccc(OCCCN3CCCC3)cc2s1)N1CCCC1` [Compound 3h, Pyrrolidin-1-yl-(6-(3-(pyrrolidin-1-yl)propoxy)benzo[d]thiazol-2-yl)methanone], half-maximal inhibition on human AChE (IC50) required 7.21 ± 2.3 µM. Moreover, the inhibition at 10 µM at human AChE stood at 56.8 ± 7.14%; on human H4R, 54.3 ± 13%; at human H1R, 39.1 ± 13%; at human recombinant MAO-B it was 24 ± 4%; at BuChE from human serum, 13 ± 2%; on human recombinant MAO-A, 22 ± 4%. Affinity at human H3R was put at a Ki of 0.038 µM.
Regarding `O=C(c1nc2ccc(OCCCCN3CCCC3)cc2s1)N1CCCC1` [Compound 3n, Pyrrolidin-1-yl(6-(4-(pyrrolidin-1-yl)butoxy)benzo[d]thiazol-2-yl)methanone], the IC50 at human AChE was found to be 1.3 ± 0.1 µM; at BuChE from human serum, 1.32 ± 0.12 µM. Moreover, the inhibition at 10 µM at human AChE amounted to 83 ± 3.27%; on human H4R it was 57.9 ± 13.3%; on human H1R, 37.5 ± 7.5%; at human recombinant MAO-B, 49 ± 4%; at BuChE from human serum, 80 ± 1%; on human recombinant MAO-A it was 31 ± 4%. At human H3R, this molecule registered a Ki of 0.059 µM.
Regarding `O=C(NC1CCCC1)c1nc2ccc(OCCCCCNC3CCCC3)cc2s1` [Compound 3t, N-Cyclopentyl-6-((5-(cyclopentylamino)pentyl)oxy)benzo[d]thiazole-2-carboxamide], the IC50 against human AChE worked out at 3.55 ± 0.54 µM; against BuChE from human serum, 1.75 ± 0.06 µM. Besides, the inhibition at 10 µM at human AChE turned out to be 75.5 ± 4.73%; on human H4R, 41.8 ± 31.7%; at human H1R, 47.3 ± 8.91%; on human recombinant MAO-B it was 47 ± 5%; on BuChE from human serum, 84 ± 1%; at human recombinant MAO-A, 39 ± 4%. On human H3R, the Ki is greater than 1 µM.
`O=C(c1nc2ccc(OCCN3CCCC3)cc2s1)N1CCCC1` [Compound 3b, Pyrrolidin-1-yl-(6-(2-(pyrrolidin-1-yl)ethoxy)benzo[d]thiazol-2-yl)methanone]: the IC50 against human AChE was 0.44 ± 0.1 µM; against BuChE from human serum, 5.31 ± 0.01 µM. Also, the inhibition at 10 µM on human AChE was 95.3 ± 0.8%; at human H4R it was 44.9 ± 18.1%; at human H1R, less than 0%; on human recombinant MAO-B, 47 ± 3%; on BuChE from human serum it was 70 ± 1%; on human recombinant MAO-A, 58 ± 2%. The same molecule displayed an inhibition constant Ki on human H3R of 0.64 µM.
On human AChE, `COC(=O)c1nc2ccc(OCCCN[C@@H](Cc3ccc(O)cc3)C(=O)OC)cc2s1` [Compound 2a, Methyl (S)-6-(3-((3-(4-hydroxyphenyl)-1-methoxy-1-oxopropan-2-yl)amino)propoxy)benzo[d]thiazole-2-carboxylate] had an IC50 greater than 10 µM. The inhibition at 10 µM is less than 0% at human AChE, 35.5 ± 32.1% on human H4R and less than 0% at human H1R. Also, the inhibition at 1 µM at human H3R was determined as 54.8 ± 21.2%.
Turning to `O=C(c1nc2ccc(OCCCCCN3CCCC3)cc2s1)N1CCCC1` [Compound 3s, Pyrrolidin-1-yl-(6-((5-(pyrrolidin-1-yl)pentyl)oxy)benzo[d]thiazol-2-yl)methanone], the inhibition at 10 µM on human AChE was 58.6 ± 3.73%; at human H4R, 63.7 ± 13%; on human H1R, 66.2 ± 7.3%; at human recombinant MAO-B it was greater than 60%; at BuChE from human serum, 69 ± 1%; on human recombinant MAO-A it was 45 ± 3%. Besides, the IC50 was 1.6 ± 0.16 µM at human recombinant MAO-B and 2.35 ± 0.23 µM against BuChE from human serum. Also, the “MAO-B % Inhibition at 10 µM” value on human recombinant MAO-B was found to be 75 ± 3%. In addition, the Ki at human H3R worked out at 0.036 µM.
In the case of `O=C(c1nc2ccc(OCCCCCN3CCCCC3)cc2s1)N1CCCCC1` [Compound 3o, Piperidin-1-yl(6-((5-(piperidin-1-yl)pentyl)oxy)benzo[d]thiazol-2-yl)methanone], the values for the half-maximal inhibitory concentration (IC50) on human AChE, on human recombinant MAO-B and against BuChE from human serum were greater than 10 µM, 3.04 ± 0.46 µM and 2.38 ± 0.32 µM, respectively. For the same molecule, the inhibition at 10 µM at human AChE is 27.8 ± 5.91%; at human H4R, 38.8 ± 28%; on human H1R, 91.2 ± 8.2%; on human recombinant MAO-B, greater than 60%; on BuChE from human serum, 81 ± 1%; on human recombinant MAO-A, 37 ± 4%. At human recombinant MAO-B, the “MAO-B % Inhibition at 10 µM” value came out at 70 ± 4%. The same molecule showed an inhibition constant (Ki) on human H3R of 0.068 µM.
As for `O=C(NCCN1CCCC1)c1nc2ccc(OCCCNCCN3CCCC3)cc2s1` [Compound 4a, N-(2-(Pyrrolidin-1-yl)ethyl)-6-(3-((2-(pyrrolidin-1-yl)ethyl)amino)propoxy)benzo[d]thiazole-2-carboxamide], the IC50 amounted to 1.24 ± 0.07 µM against human AChE and 0.169 ± 0.019 µM against BuChE from human serum. Also, the inhibition at 10 µM at human AChE was found to be 86.9 ± 1.51%; on human recombinant MAO-B, 51 ± 1%; at BuChE from human serum, 97 ± 1%; on human recombinant MAO-A, 29 ± 4%. Further, the inhibition at 1 µM at human H1R was 28.1 ± 39.1%. This molecule also gave a Ki at human H3R of 0.053 µM.
At human AChE, `O=C(NC1CCCCCC1)c1nc2ccc(OCCCCNC3CCCCCC3)cc2s1` [Compound 3k, N-Cycloheptyl-6-(4-(cycloheptylamino)butoxy)benzo[d]thiazole-2-carboxamide] displayed an IC50 greater than 10 µM. Further, the inhibition at 10 µM at human AChE amounted to 9.7 ± 4.91%; on human H4R, 61.5 ± 8.9%; on human H1R, 14.2 ± 11.7%. Besides, the inhibition at 1 µM at human H3R was found to be 39 ± 8.9%.
In turn, `O=C(NCC1CCCCC1)c1nc2ccc(OCCCCNCC3CCCCC3)cc2s1` [Compound 3l, N-(Cyclohexylmethyl)-6-(4-((cyclohexylmethyl)amino)butoxy)benzo[d]thiazole-2-carboxamide] came in with an IC50 against human AChE greater than 10 µM. The inhibition at 10 µM on human AChE came out at 16.7 ± 7.79%; on human H4R it was 49.7 ± 41%; on human H1R, 14.7 ± 8.5%. The inhibition at 1 µM at human H3R is 57.3 ± 12.7%.
In the case of `O=C(NC1CC1)c1nc2ccc(OCCCCNC3CC3)cc2s1` [Compound 3m, N-Cyclopropyl-6-(4-(cyclopropylamino)butoxy)benzo[d]thiazole-2-carboxamide], the half-maximal inhibitory concentration (IC50) against human AChE was greater than 10 µM. The inhibition at 10 µM at human AChE is 13.2 ± 8.07%; on human H4R, 53.6 ± 11.1%; at human H1R, 27 ± 10.6%. Moreover, the inhibition at 1 µM at human H3R was found to be 67.8 ± 2.5%.

(Values after article PMC9937012 (Journal of Enzyme Inhibition and Medicinal Chemistry, 2023).)
